Test results from ChEMBL document CHEMBL5241122, “A concise review on marine bromopyrrole alkaloids as anticancer agents” (Bioorg Med Chem Lett, 2023).
Each block holds one compound with its values, some of them ahead of it.

What was measured:
MCF7 = assay: Cytotoxicity against human MCF7 cells by MTT assay; assay type: functional, cell-based
Caco-2 = assay: Cytotoxicity against human Caco-2 cells by MTT assay; assay type: functional, cell-based
WRL68 = assay: Cytotoxicity against human WRL68 cells by MTT assay; assay type: functional, cell-based
Jurkat = assay: Antiinflammatory activity in PMA induced human Jurkat cells assessed as inhibition of IL-2 production by EIA assay; assay type: functional, cell-based
[1] = Inhibition of recombinant human MAPK expressed in Escherichia coli assessed as reduction in MEK-1 phosphorylation incubated for 60 mins by ELISA assay
LoVo = assay: Inhibition of cell growth in human LoVo cells by SRB assay; assay type: functional, cell-based
MONO-MAC-6 = assay: Cytotoxicity against human MONO-MAC-6 cells incubated for 48 hrs by [3H]-thymidine incorporation based liquid scintillation counter analysis; assay type: functional, cell-based
L1210 = assay: Cytotoxicity against mouse L1210 cells; assay type: functional, cell-based
HCT-116 = assay: Antiproliferative activity against human HCT-116 cells incubated for 72 hrs by SRB assay; assay type: functional, cell-based; conditions: HCT-116, 72 h
K562 [2] = assay: Antiproliferative activity against human K562 cells incubated for 72 hrs by SRB assay; assay type: functional, cell-based; conditions: K562, 72 h
SNU-638 = assay: Antiproliferative activity against human SNU-638 cells incubated for 72 hrs by SRB assay; assay type: functional, cell-based; conditions: SNU-638, 72 h
A549 [3] = assay: Antiproliferative activity against human A549 cells incubated for 72 hrs by SRB assay; assay type: functional, cell-based; conditions: A549, 72 h
MDA-MB-231 [4] = assay: Antiproliferative activity against human MDA-MB-231 cells incubated for 72 hrs by SRB assay; assay type: functional, cell-based; conditions: MDA-MB-231, 72 h
SK-HEP1 = assay: Antiproliferative activity against human SK-HEP1 cells incubated for 72 hrs by SRB assay; assay type: functional, cell-based; conditions: SK-HEP1, 72 h
[5] = target: E3 ubiquitin-protein ligase CBL-B (Homo sapiens, UniProt Q13191); assay: Inhibition of Cbl-b (unknown origin) assessed as inhibition of Cbl-b dependent ubiquitination in presence of ATP measured after 13 hrs by fluorescence microplate reader assay
Sequence of E3 ubiquitin-protein ligase CBL-B (Q13191 whole entry): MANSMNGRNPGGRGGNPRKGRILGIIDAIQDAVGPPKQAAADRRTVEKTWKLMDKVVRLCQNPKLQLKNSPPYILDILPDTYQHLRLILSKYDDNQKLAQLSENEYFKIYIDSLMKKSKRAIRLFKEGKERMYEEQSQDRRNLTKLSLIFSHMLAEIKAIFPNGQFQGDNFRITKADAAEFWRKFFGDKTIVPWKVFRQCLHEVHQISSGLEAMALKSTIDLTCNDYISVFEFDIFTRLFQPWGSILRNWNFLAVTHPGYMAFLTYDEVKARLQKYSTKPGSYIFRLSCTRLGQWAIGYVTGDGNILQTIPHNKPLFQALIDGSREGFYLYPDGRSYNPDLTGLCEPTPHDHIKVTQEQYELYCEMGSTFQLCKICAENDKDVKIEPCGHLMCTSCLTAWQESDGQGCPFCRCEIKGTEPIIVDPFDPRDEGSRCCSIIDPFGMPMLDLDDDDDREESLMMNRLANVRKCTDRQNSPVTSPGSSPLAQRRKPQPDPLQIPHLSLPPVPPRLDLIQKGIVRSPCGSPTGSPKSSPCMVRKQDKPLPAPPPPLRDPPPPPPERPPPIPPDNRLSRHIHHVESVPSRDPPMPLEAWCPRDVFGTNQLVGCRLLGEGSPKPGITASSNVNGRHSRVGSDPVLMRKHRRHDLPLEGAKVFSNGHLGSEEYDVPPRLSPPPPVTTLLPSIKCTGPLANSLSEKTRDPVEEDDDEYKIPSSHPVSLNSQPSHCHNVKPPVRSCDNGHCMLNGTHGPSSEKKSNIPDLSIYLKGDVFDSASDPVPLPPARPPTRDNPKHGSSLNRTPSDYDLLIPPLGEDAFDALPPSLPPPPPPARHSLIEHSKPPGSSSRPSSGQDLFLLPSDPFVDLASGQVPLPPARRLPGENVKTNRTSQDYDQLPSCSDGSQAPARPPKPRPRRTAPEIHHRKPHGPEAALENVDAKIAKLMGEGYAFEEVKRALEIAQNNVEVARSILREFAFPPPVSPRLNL

K562 [6] = assay: Cytotoxicity against human K562 cells; assay type: functional, cell-based
KB = assay: Cytotoxicity against human KB cells; assay type: functional, cell-based
A549 [7] = assay: Cytotoxicity against human A549 cells assessed as cell growth inhibition by cell based assay; assay type: functional
PSN1 = assay: Cytotoxicity against human PSN1 cells assessed as cell growth inhibition by cell based assay; assay type: functional
HT-29 = assay: Cytotoxicity against human HT-29 cells assessed as cell growth inhibition by cell based assay; assay type: functional
MDA-MB-231 [8] = assay: Cytotoxicity against human MDA-MB-231 cells assessed as cell growth inhibition by cell based assay; assay type: functional
[9] = Displacement of [125I]-somatostatin from somatostatin (unknown origin) incubated for 60 mins by gamma scintillation counter analysis; parameters: species or system Homo sapiens
VIP peptides = VIP peptides (Homo sapiens, UniProt P01282); assay: Displacement of [125I]-VIP from Vasoactive intestinal peptide (unknown origin) incubated for 120 mins by gamma scintillation counter analysis
Sequence of VIP peptides (P01282 125-152 limits assumed): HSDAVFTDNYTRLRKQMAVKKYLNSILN

K562 [10] = assay: Cytotoxicity against human K562 cells by MTT assay; assay type: functional, cell-based
L02 = assay: Cytotoxicity against human L02 cells by MTT assay; assay type: functional, cell-based
[11] = target: Receptor tyrosine-protein kinase erbB-2 (Homo sapiens, UniProt P04626); assay: Inhibition of c-ErbB-2 (unknown origin)
Sequence of Receptor tyrosine-protein kinase erbB-2 (P04626 whole entry): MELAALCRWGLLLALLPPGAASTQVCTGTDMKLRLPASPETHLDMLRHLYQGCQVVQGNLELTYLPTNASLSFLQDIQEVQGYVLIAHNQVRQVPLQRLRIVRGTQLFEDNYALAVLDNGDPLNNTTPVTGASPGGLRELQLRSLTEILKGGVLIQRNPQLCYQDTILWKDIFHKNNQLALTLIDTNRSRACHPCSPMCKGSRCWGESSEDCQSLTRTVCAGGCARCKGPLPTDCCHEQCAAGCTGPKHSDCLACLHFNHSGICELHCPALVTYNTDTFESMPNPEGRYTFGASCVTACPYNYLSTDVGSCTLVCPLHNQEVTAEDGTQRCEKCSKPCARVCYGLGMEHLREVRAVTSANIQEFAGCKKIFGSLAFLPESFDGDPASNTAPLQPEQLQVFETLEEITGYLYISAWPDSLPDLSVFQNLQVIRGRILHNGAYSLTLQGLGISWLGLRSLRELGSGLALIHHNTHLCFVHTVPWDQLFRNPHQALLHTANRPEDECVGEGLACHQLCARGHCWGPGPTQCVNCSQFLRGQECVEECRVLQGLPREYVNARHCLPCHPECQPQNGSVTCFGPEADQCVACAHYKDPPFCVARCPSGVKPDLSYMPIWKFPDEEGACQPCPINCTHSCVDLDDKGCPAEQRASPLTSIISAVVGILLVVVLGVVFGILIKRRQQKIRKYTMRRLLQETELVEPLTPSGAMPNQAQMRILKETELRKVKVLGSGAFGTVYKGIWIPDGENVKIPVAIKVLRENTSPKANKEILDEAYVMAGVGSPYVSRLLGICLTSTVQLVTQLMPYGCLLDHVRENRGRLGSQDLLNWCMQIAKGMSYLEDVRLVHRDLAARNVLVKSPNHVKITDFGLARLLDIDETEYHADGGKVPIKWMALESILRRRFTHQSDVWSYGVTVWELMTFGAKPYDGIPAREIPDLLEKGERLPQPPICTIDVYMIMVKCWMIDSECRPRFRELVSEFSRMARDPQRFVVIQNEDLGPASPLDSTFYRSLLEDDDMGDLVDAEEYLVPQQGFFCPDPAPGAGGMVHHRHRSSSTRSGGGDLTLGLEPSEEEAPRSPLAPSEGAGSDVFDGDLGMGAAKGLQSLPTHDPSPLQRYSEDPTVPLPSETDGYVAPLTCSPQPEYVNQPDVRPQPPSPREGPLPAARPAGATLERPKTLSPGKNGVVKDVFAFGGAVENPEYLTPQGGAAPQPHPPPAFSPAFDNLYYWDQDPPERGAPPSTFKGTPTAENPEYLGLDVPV

[12] = target: Cyclin-dependent kinase 4 (Homo sapiens, UniProt P11802); assay: Inhibition of CDK4 (unknown origin)
Sequence of Cyclin-dependent kinase 4 (P11802 whole entry): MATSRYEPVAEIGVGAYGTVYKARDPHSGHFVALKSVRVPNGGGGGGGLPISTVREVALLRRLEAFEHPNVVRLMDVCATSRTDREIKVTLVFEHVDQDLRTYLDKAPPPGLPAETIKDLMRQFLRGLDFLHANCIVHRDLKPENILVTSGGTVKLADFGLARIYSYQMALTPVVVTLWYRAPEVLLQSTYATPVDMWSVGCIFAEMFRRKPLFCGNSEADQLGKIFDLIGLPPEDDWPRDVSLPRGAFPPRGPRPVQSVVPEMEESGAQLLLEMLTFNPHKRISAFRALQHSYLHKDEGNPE

P388 = assay: Cytotoxicity against mouse P388 cells; assay type: functional, cell-based

Compound: O=C(NNC(=S)Nc1ccc(Cl)cc1)c1cc(Br)c(Br)[nH]1
IC50 (MCF7): 0.03 µM | IC50 (Caco-2): 0.03 µM | IC50 (WRL68): 0.03 µM

IC50 (Jurkat): 4 µM | IC50 [1]: 0.006 µM | IC50 (LoVo): 0.006 µM
Compound: NC1=NC(=O)/C(=C2\CCNC(=O)c3[nH]c(Br)cc32)N1 [HYMENIALDISINE]
IC50 (MONO-MAC-6): 0.61 µM

Compound: NC1NC2c3c([nH]c(Br)c3Br)C(=O)N3C[C@H](Cl)[C@H](O)C23N1 (stereo partly specified)
IC50 (L1210): 5.68 µM

IC50 (HCT-116): 9.93 µM | IC50 (K562 [2]): 12.9 µM | IC50 (SNU-638): 7.92 µM | IC50 (A549 [3]): 31.3 µM | IC50 (MDA-MB-231 [4]): 32.8 µM | IC50 (SK-HEP1): 35.2 µM
Compound: NC1=NC(=O)C([C@@H]2[C@@H](CNC(=O)c3cc(Br)c[nH]3)[C@H](CNC(=O)c3cc(Br)c[nH]3)[C@H]2C2NC(N)=NC2=O)N1 (stereo partly specified)

IC50 [5]: 18 µM
Compound: Cn1cc(Br)cc1C(=O)NC[C@@H]1[C@@H](CNC(=O)c2ccc(Br)[nH]2)CC2N=C(N)NC2[C@H]1c1c[nH]c(N)n1 (stereo partly specified)

Compound: N=C1N=C(NCCS(=O)(=O)O)C(O)(/C=C/CNC(=O)c2cc(Br)c(Br)[nH]2)N1 (stereo unspecified)
IC50 (K562 [6]): 20.7 µM | IC50 (KB): 20.7 µM

Compound: CN1C(=O)C[C@H](C(N)=O)NC(=O)C(O)CNC(=O)[C@H](CNC(=O)c2cc(Br)c(Br)[nH]2)NC(=O)[C@H](CN)NC(=O)C1Cc1cnc(Cl)[nH]1 (stereo partly specified)
GI50 (A549 [7]): > 12 µM | GI50 (PSN1): > 12 µM | GI50 (HT-29): > 12 µM | GI50 (MDA-MB-231 [8]): > 12 µM

IC50 [9]: 2.2 µM | IC50 (VIP peptides): 19.2 µM
Compound: NC1=NC2C[C@H](CNC(=O)c3cc(Br)c[nH]3)[C@@H](CNC(=O)c3cc(Br)c[nH]3)[C@H](c3nc(N)c[nH]3)C2N1 (stereo partly specified)

Compound: Cc1ccccc1NC(=S)NNC(=O)c1cc(Br)c(Br)n1C
IC50 (MCF7): 0.07 µM | IC50 (Caco-2): 0.07 µM | IC50 (WRL68): 0.07 µM

IC50 [5]: 18 µM
Compound: Cn1cccc1C(=O)NC[C@H]1CC2N=C(N)NC2[C@@H](c2c[nH]c(N)n2)[C@@H]1CNC(=O)c1cc(Br)c(Br)n1C (stereo partly specified)

Compound: CO[C@@]12C[C@@H](CNC(=O)c3cc(Br)c[nH]3)O[C@@H]1NC(=O)N2
IC50 (L1210): 20.9 µM

Compound: O=C1NC(=O)/C(=C/CCNC(=O)c2[nH]cc(Br)c2Br)N1
IC50 (K562 [10]): 6.1 µM | IC50 (L02): 12.3 µM

Compound: COc1cc(NC(=S)NNC(=O)c2cc(Br)c(Br)n2C)cc(OC)c1OC
IC50 (MCF7): 0.03 µM | IC50 (Caco-2): 0.03 µM | IC50 (WRL68): 0.03 µM

IC50 [11]: 18.5 µM | IC50 [12]: 29.6 µM
Compound: N=C1NC(=O)/C(=C2/CCNC(=O)c3[nH]cc(Br)c32)N1

Compound: COC(=O)CC1CNC(=O)c2cc(Br)c(Br)n21 (racemic)
EC50 (P388; read-out: ED50 (the source's name)): 82 µM

Compound: Cn1c(C(=O)NNC(=S)Nc2ccccc2F)cc(Br)c1Br
IC50 (MCF7): 0.01 µM | IC50 (Caco-2): 0.01 µM | IC50 (WRL68): 0.01 µM

IC50 [12]: 26.1 µM
Compound: NC1NC[C@H](O)[C@@]2(N1)[C@H]1[C@H](CN3C(=O)c4cc(Br)cn4[C@H]4NC(N)N[C@@]413)[C@H](CNC(=O)c1cc(Br)c(Br)[nH]1)[C@@H]2Cl (stereo partly specified)
IC50 (L1210): 26.7 µM | IC50 (KB): 26.7 µM

IC50 [5]: 18 µM
Compound: Cn1cc(Br)cc1C(=O)NC[C@H]1CC2N=C(N)NC2[C@@H](c2c[nH]c(N)n2)[C@@H]1CNC(=O)c1cc(Br)c[nH]1 (stereo partly specified)

IC50 [9]: 0.27 µM | IC50 (VIP peptides): 19.8 µM
Compound: Nc1nc([C@H]2[C@H](CNC(=O)c3cc(Br)c[nH]3)[C@@H](CNC(=O)c3cc(Br)c[nH]3)[C@@H]2c2c[nH]c(N)n2)c[nH]1 [SCEPTRIN]

Compound: NC1=N[C@@]23CCCN2C(=O)c2c([nH]c(Br)c2Br)[C@H]3N1
IC50 (P388): 20.3 µM
